According to patent publication US8163909B2, “Substituted hydroxyethyl amine compounds as beta-secretase modulators and methods of use” (Amgen Inc., priority 2007, dated 2012):
Where two headings read alike, the source gives them in different places.

Legend:
[1] = molecular target: Beta Secretase enzyme (BACE) (Homo sapiens, UniProt P56817); assay: In vitro enzymatic BACE FRET (fluorescence resonance energy transfer) assay; type: biochemical;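 further: fluorescence read after 1 h with 50 nM quenched peptide substrate spanning the BACE cleavage site, in pH 4.2 acetate buffer containing 10% DMSO and nonionic detergent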
Beta Secretase enzyme (BACE), sequence (P56817 46-501): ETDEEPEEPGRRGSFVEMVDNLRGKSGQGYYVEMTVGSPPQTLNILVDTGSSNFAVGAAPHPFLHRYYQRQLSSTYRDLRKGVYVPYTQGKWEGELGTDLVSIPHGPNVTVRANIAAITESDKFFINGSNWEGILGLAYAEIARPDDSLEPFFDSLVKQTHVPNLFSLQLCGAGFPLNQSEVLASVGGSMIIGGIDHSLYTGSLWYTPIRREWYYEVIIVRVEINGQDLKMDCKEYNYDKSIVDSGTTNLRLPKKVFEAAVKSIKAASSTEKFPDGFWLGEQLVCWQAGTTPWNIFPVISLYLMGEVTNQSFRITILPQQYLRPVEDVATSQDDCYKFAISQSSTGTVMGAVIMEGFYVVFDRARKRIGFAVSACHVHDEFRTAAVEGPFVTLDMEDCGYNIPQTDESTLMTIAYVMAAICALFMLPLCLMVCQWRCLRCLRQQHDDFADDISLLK

[2] = test system: Aβ40 in conditioned medium of cells stably expressing Amyloid Precursor Protein (APP); assay: In vitro BACE cell-based assay (Aβ40 in conditioned medium, sandwich ELISA);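 further: compounds added as a dilution series, secreted peptide quantified by europium time-resolved fluorescence readout, potency fitted from percent of control versus compound concentration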
[3] = BACE enzyme assay, read-out: BACE1 FRET assay (IC50)
[4] = Homo sapiens, HEK293, HEK cells, cell-based assay, read-out: HEK cell assay (IC50)
[5] = BACE enzyme FRET assay, read-out: BACE1 FRET assay (IC50)
[6] = HEK cells, cell-based assay, read-out: HEK cell assay (IC50)
[7] = Table 1, read-out: BACE1 FRET assay
[8] = Homo sapiens, HEK293, Table 1, HEK cells, read-out: HEK cell assay

| Compound | IC50 [1, 3] | IC50 [2, 4] | IC50 [1, 5] | other results |
| --- | --- | --- | --- | --- |
| COC(C)C(=O)NC(Cc1ccc(F)cc1)C(O)CNC1CC2(CCC2)Oc2ncc(CC(C)(C)C)cc21 [compound 154, (2R)—N-((1S,2R)-3-(((4′S)-6′-(2,2-dimethylpropyl)-3′,4-dihydrospiro[cyclobutane-1,2′-pyrano[2,3-b]pyridin]-4′-yl)amino)-1-((4-fluorophenyl)methyl)-2-hydroxypropyl)-2-(methyloxy)propanamide] | 13.2 nM | 28 nM |  |  |
| CO[C@@H](C)C(=O)N[C@@H](Cc1ccc(F)cc1)[C@H](O)CN[C@H]1CC2(CCC2)Oc2ncc(CC(C)(C)C)cc21 [compound 155] | 40.1 nM | 76 nM |  |  |
| CO[C@H](C)C(=O)N[C@@H](Cc1ccc(F)cc1)[C@H](O)CN[C@H]1C[C@]2(C[C@H](O)C2)Oc2ncc(CC(C)C)cc21 [compound 250, (2R)—N-((1S,2R)-1-((4-fluorophenyl)methyl)-2-hydroxy-3-(((1s,3S,4′S)-3-hydroxy-6′-(2-methylpropyl)-3′,4′-dihydrospiro[cyclobutane-1,2′-pyrano[2,3-b]pyridin]-4′-yl)amino)propyl)-2-(methyloxy)propanamide] |  |  | 12.8 nM | IC50 [2, 6]: 27.3 nM |
| CC(C)(C)Cc1cnc2c(c1)[C@@H](NC[C@@H](O)[C@H](Cc1ccc3c(c1)OCO3)NC(=O)C(F)(F)F)CC1(CCC1)O2 [compound 288] |  | 455 nM | 53.9 nM |  |
| COCC(=O)N[C@@H](Cc1ccc(F)cc1)[C@H](O)CN[C@H]1CC2(CCC2)Oc2ncc(CC(C)(C)C(F)(F)F)cc21 [compound 76] | 3.68 nM | 10.8 nM |  |  |
| COCC(=O)N[C@@H](Cc1ccc(F)cc1)[C@H](O)CN[C@H]1CC2(CCC2)Oc2ncc([C@H](F)C(C)(C)C)cc21 [compound 179] | 5.49 nM | 18.6 nM |  |  |
| COCC(=O)N[C@@H](Cc1ccc(F)cc1)[C@H](O)CN[C@H]1CC2(CCC2)Oc2ncc(CC(C)C)cc21 [compound 332] |  |  |  | IC50 [1, 7]: 10.9 nM; IC50 [2, 8]: 18.9 nM |
| CC(F)C(=O)N[C@@H](Cc1ccc2c(c1)OCO2)[C@H](O)CN[C@H]1CC2(CCC2)Oc2ncc(CC(C)(C)C)cc21 (stereo partly drawn) [compound 452, N-((1S,2R)-1-(1,3-benzodioxol-5-ylmethyl)-3-(((4′S)-6′-(2,2-dimethylpropyl)-3′,4′-dihydrospiro[cyclobutane-1,2′-pyrano[2,3-b]pyridin]-4′-yl)amino)-2-hydroxypropyl)-2-fluoropropanamide] |  |  |  | IC50 ([1]; Table 2, read-out: BACE1 FRET assay): 16 nM; IC50 ([2]; Homo sapiens, HEK293, Table 2, HEK cells, read-out: HEK cell assay): 39 nM |
| 1-cyclobutyl-N-((1S,2R)-3-(((4′S)-6′-(2,2-dimethylpropyl)-3′,4′-dihydrospiro[cyclobutane-1,2′-pyrano[2,3-b]pyridin]-4′-yl)amino)-1-((4-fluorophenyl)methyl)-2-hydroxypropyl)-5-oxo-3-pyrrolidinecarboxamide [compound 67] | 471 nM |  |  | IC50 [2, 6]: 62.5 nM |
| CC(C)(C)Cc1cnc2c(c1)[C@@H](NC[C@@H](O)[C@H](Cc1cc(F)cc(F)c1)NC(=O)OCc1cncs1)CC1(CCC1)O2 [compound 93] | 4.95 nM | 79.2 nM |  |  |
| COCC(=O)N[C@@H](Cc1ccc(F)cc1)[C@H](O)CN[C@H]1CC2(CCC2)Oc2ncc([C@H](O)C(C)(C)C)cc21 [compound 188] |  | 1660 nM | 61.2 nM |  |
| CCc1cnc2c(c1)[C@@H](NC[C@@H](O)[C@H](Cc1cc(F)cc(-c3nccs3)c1)NC(=O)COC)CC1(CCC1)O2 [compound 728] |  |  |  | IC50 ([1]; BACE enzyme assay IC50, read-out: BACE1 FRET assay): 30 nM; IC50 ([2]; Homo sapiens, HEK293, HEK cell-based assay IC50, read-out: HEK cell assay): 108 nM |
| CC(=O)N[C@@H](Cc1ccccc1)[C@H](O)CN[C@H]1CC2(CCC2)Oc2ncc(C[C@@H](C)C(F)(F)F)cc21 [compound 317] |  |  |  | IC50 [1, 7]: 19.7 nM; IC50 [2, 8]: 27.8 nM |
| CC(=O)N[C@@H](Cc1ccc(F)cc1)[C@H](O)CN[C@@H]1c2cc(CC(C)(C)C)cnc2OC2(CCC2)[C@H]1F [compound 357] |  |  |  | IC50 [1, 7]: 13300 nM; IC50 [2, 8]: > 10000 nM |
| COCC(=O)N[C@@H](Cc1ccc(F)cc1)[C@H](O)CN[C@H]1CC2(CCC2)Oc2ncc([C@@H](O)C(C)(C)C)cc21 [compound 189] |  | 1000 nM | 880 nM |  |
| CC(=O)N[C@@H](Cc1ccccc1)[C@H](O)CN[C@H]1CC2(CCC2)Oc2ncc(CC3CC3)cc21 [compound 202] |  | 65.9 nM | 34.2 nM |  |
| COCC(=O)N[C@@H](Cc1ccc(F)cc1)[C@H](O)CN[C@H]1CC2(CCC2)Oc2ncc(CCC(F)(F)F)cc21 [compound 193] |  | 518 nM | 202 nM |  |
| COCC(=O)N[C@@H](Cc1ccc(F)cc1)[C@H](O)CN[C@H]1CC2(CCC2)Oc2ncc(CC(C)(F)F)cc21 [compound 271] |  | 100 nM | 38.7 nM |  |

| Compound | IC50 [1, 3] | IC50 [2, 4] | IC50 [1, 5] | other results |
| --- | --- | --- | --- | --- |
| COCC(=O)NC(Cc1ccc(F)c(F)c1)C(O)CNC1CC2(CC(O)C2)Oc2ncc(CC(C)(C)C)cc21 [compound 233, N-((1S,2R)-1-((3,4-difluorophenyl)methyl)-3-(((1s,3S,4′S)-6′-(2,2-dimethylpropyl)-3-hydroxy-3′,4′-dihydrospiro[cyclobutane-1,2′-pyrano[2,3-b]pyridin]-4′-yl)amino)-2-hydroxypropyl)-2-(methyloxy)acetamide] |  | 7.33 nM | 7.24 nM |  |
| CC(=O)N[C@@H](Cc1ccc(F)cc1)[C@H](O)CN[C@@H]1C[C@]2(CC[C@H]2O)Oc2ncc(CC(C)(C)C)cc21 [compound 115] | 6880 nM | 5500 nM |  |  |
| CO[C@@H](C)C(=O)N[C@@H](Cc1cccc(F)c1)[C@H](O)CN[C@H]1CC2(CCC2)Oc2ncc(CC(C)(C)C)cc21 [compound 361] |  |  |  | IC50 [1, 7]: 6.58 nM; IC50 [2, 8]: 9.23 nM |
| CC(C)(C)Cc1cnc2c(c1)[C@@H](NC[C@@H](O)[C@H](Cc1cc(F)cc(F)c1)NC(=O)C(F)(F)Cl)CC1(CCC1)O2 [compound 96] | 0.23 nM | 43.2 nM |  |  |
| COCC(=O)N[C@@H](Cc1ccc2c(c1)OC(F)(F)O2)[C@H](O)CN[C@H]1CC2(CCC2)Oc2ncc(CC(C)(C)C)cc21 [compound 291] |  | 382 nM | 41.4 nM |  |
| CC(=O)N[C@@H](Cc1cccc(F)c1)[C@H](O)CN[C@H]1CC2(CCC2)Oc2ncc(CC(C)(C)C(F)F)cc21 [compound 217] |  | 2.98 nM | 2.92 nM |  |
| CO[C@@H](C)C(=O)N[C@@H](Cc1ccc2c(c1)OC(F)(F)O2)[C@H](O)CN[C@H]1CC2(CCC2)Oc2ncc(CC(C)(C)C)cc21 [compound 296] |  | 575 nM | 102 nM |  |
| CC(=O)N[C@@H](Cc1ccc(F)cc1)[C@H](O)CN[C@@H]1c2cc(CC(C)(C)C)cnc2OC2(CCC2)[C@@H]1F [compound 358] |  |  |  | IC50 [1, 7]: 22.4 nM; IC50 [2, 8]: 353 nM |
| CC(=O)N[C@@H](Cc1cc(F)c2c(c1)OCO2)[C@@H](O)CN[C@H]1CC2(CCC2)Oc2ncc(CC(C)(C)C)cc21 [compound 305, N-((1S,2S)-3-(((4′S)-6′-(2,2-dimethylpropyl)-3′,4′-dihydrospiro[cyclobutane-1,2′-pyrano[2,3-b]pyridin]-4′-yl)amino)-1-((7-fluoro-1,3-benzodioxol-5-yl)methyl)-2-hydroxypropyl)acetamide] |  | 58 nM | 37.9 nM |  |
| COCC(=O)N[C@@H](Cc1cccc(F)c1)[C@H](O)CN[C@H]1CC2(CCC2)Oc2c1cc(CC(C)(C)C)nc2OCC(F)(F)F [compound 140, N-((1S,2R)-3-(((4′S)-6′-(2,2-dimethylpropyl)-8′-((2,2,2-trifluoroethyl)oxy)-3′,4′-dihydrospiro[cyclobutane-1,2′-pyrano[2,3-c]pyridin]-4′-yl)amino)-1-((3-fluorophenyl)methyl)-2-hydroxypropyl)-2-(methyloxy)acetamide] | 7.75 nM | 115 nM |  |  |
| CO[C@H](C)C(=O)N[C@@H](Cc1cccc(F)c1)[C@H](O)CN[C@H]1CC2(CCC2)Oc2ncc(CC(C)(C)C)cc21 [compound 360] |  |  |  | IC50 [1, 7]: 3.11 nM; IC50 [2, 8]: 4.82 nM |
| CC(=O)N[C@@H](Cc1cccc(F)c1)[C@H](O)CN[C@H]1CC2(CCC2)Oc2ccc(CC(C)(C)F)cc21 [compound 201, N-((1S,2R)-3-(((4S)-6-(2-fluoro-2-methylpropyl)-3,4-dihydrospiro[chromene-2,1′-cyclobutan]-4-yl)amino)-1-((3-fluorophenyl)methyl)-2-hydroxypropyl)acetamide] |  | 76.8 nM | 20.1 nM |  |
| CO[C@H](C)C(=O)N[C@@H](Cc1cc(Cl)c2c(c1)OCO2)[C@H](O)CN[C@H]1CC2(CCC2)Oc2ncc(CC(C)(C)C)cc21 [compound 209] |  | 18.1 nM | 12.2 nM |  |
| CC(=O)N[C@@H](Cc1ccnc(OCC(F)F)c1)[C@H](O)CN[C@H]1CC2(CCC2)Oc2c(F)cc(CC(C)(C)C)cc21 [compound 223] |  | 29.8 nM | 9.69 nM |  |
| (2R)—N-((1S,2R)-1-((4-fluorophenyl)methyl)-2-hydroxy-3-(((4′S)-6′-(3,3,3-trifluoropropyl)-3′,4′-dihydrospiro[cyclobutane-1,2′-pyrano[2,3-b]pyridin]-4′-yl)amino)propyl)-2-(methyloxy)propanamide ′(2S)—N-((1S,2R)-1-((4-fluorophenyl)methyl)-2-hydroxy-3-(((4′S)-6′-(3,3,3-trifluoropropyl)-3′,4′-dihydrospiro[cyclobutane-1,2′-pyrano[2,3-b]pyridin]-4′-yl)amino)propyl)-2-(methyloxy)propanamide [compound 192] |  |  | 1020 nM | IC50 [2, 6]: 2030 nM |
| CC(=O)N[C@@H](Cc1ccc(F)cc1)[C@H](O)CN[C@H]1CC2(CCC2)Oc2ccc(CC(C)(C)C#N)cc21 [compound 161] | 11.2 nM | 17.4 nM |  |  |
| CC(=O)N[C@@H](Cc1ccc(F)cc1)[C@H](O)CN[C@H]1CC2(CCC2)Oc2ncc(NC(=O)C(C)C)cc21 [compound 86] | 7470 nM | 9730 nM |  |  |
